Source: patent US20120101160A1, “Use of chemical chaperones to treat glaucoma caused by misfolded or misprocessed proteins” (Alcon, Inc., priority 2004, published 2012)

Key:
[1] = target: T1, mutant (Y437H) myocilin (Homo sapiens, UniProt Q99972, Y437H); assay: secretion of mutant myocilin in cultured CHO cells (Western blot of media and lysates); type: cell-based; conditions: CHO stable transfectants expressing Y437H myocilin; overnight incubation with chemical chaperone; glycerol 10%; E lane; FIG. 1/FIG. 2
T1 construct: expressed in transfected cells
T1 sequence (Q99972 33-504 Y437H): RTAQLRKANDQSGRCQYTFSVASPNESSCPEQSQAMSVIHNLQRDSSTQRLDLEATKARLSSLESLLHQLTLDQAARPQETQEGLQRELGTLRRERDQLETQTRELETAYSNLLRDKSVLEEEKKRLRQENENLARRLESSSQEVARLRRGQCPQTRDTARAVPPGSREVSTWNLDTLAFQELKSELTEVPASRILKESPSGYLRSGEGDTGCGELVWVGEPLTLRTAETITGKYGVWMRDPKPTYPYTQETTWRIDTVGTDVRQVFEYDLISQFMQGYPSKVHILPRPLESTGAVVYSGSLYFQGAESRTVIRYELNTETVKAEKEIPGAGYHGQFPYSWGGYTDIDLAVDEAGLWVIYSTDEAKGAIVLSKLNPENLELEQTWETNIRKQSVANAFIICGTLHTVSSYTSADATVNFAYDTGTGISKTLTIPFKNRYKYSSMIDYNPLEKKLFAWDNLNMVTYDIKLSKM
Text: (§1) Wild-type myocilin is normally expressed and secreted from the human TM, whereas mutant disease-causing myocilin is retained intracellularly (Jacobson, Andrews et al. 2001). […] We tested several compounds for their ability to effect secretion of mutant myocilin in cultured CHO cells that were engineered for their ability to express, but not secrete, mutant (Y437H or Q368X) myocilin. Plasmids expressing wild-type or mutant myocilin were generated as described (Jacobson, Andrews et al. 2001).
(§2) CHO stable transfectants were grown in F12K media containing 10% FBS supplemented with penicillin-streptomycin-glutamine. Stable transfectants were generated by transfection with lipofectamine plus (Invitrogen) followed by limiting dilution plating and selection in G-418 (600 ug/ml). CHO cells were incubated with serum-free media 24 h post-transfection and media or cell lysates were collected after overnight incubation with the chemical chaperone. Equivalent cell lysate protein amounts (5 ug) were loaded for SDS-PAGE analysis. Cell media was not concentrated and was loaded at 16 ul per lane for SDS-PAGE/Western blot analysis.
(§3) Cells were rinsed with PBS and solubilized in a commercial mammalian extraction buffer (M-Per™; Pierce, Rockford, Ill.) supplemented with a protease inhibitor cocktail (Complete, EDTA-free; Boehringer Mannheim, Indianapolis, Ind.) followed by centrifugation at 12,000×g for 5 min. Protein concentration of the supernatant was determined with Coomasie Plus Protein Assay Reagent (Pierce). Cell extracts were stored at −20° C.
(§4) Cell media or extracts were analyzed using pre-cast NuPAGE polyacrylamide gels and the Novex gel electrophoresis system (Novex, San Diego, Calif.). Proteins were electroblotted to Hybond-P PVDF membranes (Amersham Pharmacia Biotech, Piscataway, N.J.), blocked with gelatin, and probed with affinity purified rabbit anti-MYOC antibody 129 (generated to myocilin peptide 156-171) (Jacobson, Andrews et al. 2001) and an anti-rabbit IgG secondary antibody (Amersham). Immunoreactivity was detected with the ECL Plus detection system (Amersham). Blots were exposed to BioMax MR film (Eastman Kodak, Rochester, N.Y.) and scanned with a Hewlett-Packard ScanJet ADF scanner (Hewlett Packard, Boise, Id.) for figure presentation.

[2] = target: T2, mutant (Q368X) myocilin (Homo sapiens, UniProt Q99972); assay: as above; type: cell-based; conditions: CHO stable transfectants expressing Q368X myocilin; overnight incubation with chemical chaperone; glycerol 10%; E and I lanes; FIG. 1/FIG. 2
T2 construct: expressed in transfected cells
T2 sequence (Q99972 33-367 limits assumed): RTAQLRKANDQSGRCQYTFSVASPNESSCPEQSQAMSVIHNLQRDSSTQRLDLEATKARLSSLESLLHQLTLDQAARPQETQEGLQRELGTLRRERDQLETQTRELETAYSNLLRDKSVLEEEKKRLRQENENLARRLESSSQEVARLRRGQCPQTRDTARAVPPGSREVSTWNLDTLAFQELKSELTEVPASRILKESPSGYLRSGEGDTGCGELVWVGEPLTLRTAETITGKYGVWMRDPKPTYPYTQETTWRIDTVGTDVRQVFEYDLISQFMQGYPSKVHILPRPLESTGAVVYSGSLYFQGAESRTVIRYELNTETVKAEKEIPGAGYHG
Text: as §1, §2, §3, §4

[3] = target: ΔF508 cystic fibrosis transmembrane conductance regulator protein (CFTR) (Homo sapiens, UniProt P13569, DEL508-508); conditions: cells expressing ΔF508 CFTR; similar to cells expressing the wild-type CFTR protein; cited from earlier work
ΔF508 cystic fibrosis transmembrane conductance regulator protein (CFTR), sequence (P13569 with tags, fused parts or gaps DEL508-508): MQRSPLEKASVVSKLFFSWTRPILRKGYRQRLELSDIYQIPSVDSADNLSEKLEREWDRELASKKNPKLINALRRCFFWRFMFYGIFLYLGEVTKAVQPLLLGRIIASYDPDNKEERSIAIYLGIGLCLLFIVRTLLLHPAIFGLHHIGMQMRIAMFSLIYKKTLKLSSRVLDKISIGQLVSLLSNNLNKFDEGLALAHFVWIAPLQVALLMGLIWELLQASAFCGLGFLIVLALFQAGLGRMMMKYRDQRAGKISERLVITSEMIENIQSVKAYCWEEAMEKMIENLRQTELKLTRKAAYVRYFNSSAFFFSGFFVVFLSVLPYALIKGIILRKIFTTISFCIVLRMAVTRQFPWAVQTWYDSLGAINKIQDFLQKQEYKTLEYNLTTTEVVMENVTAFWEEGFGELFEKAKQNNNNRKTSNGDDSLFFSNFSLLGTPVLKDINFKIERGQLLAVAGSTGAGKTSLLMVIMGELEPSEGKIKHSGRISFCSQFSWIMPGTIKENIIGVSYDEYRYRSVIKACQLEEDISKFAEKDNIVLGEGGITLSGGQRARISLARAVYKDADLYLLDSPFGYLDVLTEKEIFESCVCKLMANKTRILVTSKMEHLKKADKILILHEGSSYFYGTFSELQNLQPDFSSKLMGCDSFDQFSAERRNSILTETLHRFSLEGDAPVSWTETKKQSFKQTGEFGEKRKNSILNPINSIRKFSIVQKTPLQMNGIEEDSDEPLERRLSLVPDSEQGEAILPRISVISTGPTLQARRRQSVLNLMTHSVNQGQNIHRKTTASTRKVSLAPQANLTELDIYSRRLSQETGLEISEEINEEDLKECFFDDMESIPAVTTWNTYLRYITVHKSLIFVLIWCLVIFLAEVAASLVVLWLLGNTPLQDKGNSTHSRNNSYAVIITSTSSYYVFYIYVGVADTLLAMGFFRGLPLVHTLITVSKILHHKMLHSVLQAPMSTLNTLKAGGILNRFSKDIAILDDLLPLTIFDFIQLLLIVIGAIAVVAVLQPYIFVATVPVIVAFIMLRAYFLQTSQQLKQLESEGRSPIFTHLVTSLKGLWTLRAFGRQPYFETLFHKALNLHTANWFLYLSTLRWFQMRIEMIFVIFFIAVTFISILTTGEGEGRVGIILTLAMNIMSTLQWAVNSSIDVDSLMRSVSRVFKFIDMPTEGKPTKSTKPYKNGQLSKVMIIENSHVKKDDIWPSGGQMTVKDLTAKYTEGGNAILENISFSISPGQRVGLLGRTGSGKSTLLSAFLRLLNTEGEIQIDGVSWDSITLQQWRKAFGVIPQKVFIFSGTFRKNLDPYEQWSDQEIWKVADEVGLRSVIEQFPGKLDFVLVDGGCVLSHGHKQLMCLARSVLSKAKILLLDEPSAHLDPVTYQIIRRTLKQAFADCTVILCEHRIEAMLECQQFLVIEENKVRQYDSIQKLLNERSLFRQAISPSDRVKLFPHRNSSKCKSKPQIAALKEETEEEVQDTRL

Compound | ability to effect secretion of mutant myocilin [1] | ability to effect secretion of mutant myocilin [2] | restoration of forskolin-dependent chloride transport [3]
Gentamycin | did not effect secretion of mutant myocilin | did not effect secretion of mutant myocilin | –
C[N+](C)(C)[O-] [trimethylamine N-oxide] | – | – | restored the ability of the mutant cells to exhibit forskolin-dependent chloride transport
OCC(O)CO [Glycerol, glycerol] | able to effect full-length myocilin secretion | able to effect full-length myocilin secretion | restored the ability of the mutant cells to exhibit forskolin-dependent chloride transport
[2H]O[2H] [deuterated water] | – | – | restored the ability of the mutant cells to exhibit forskolin-dependent chloride transport
